Measured values from patent US20030045564A1, “Saururus chinensis extract for prevention and treatment of neurodegenerative disease” (priority 2000, published 2003).

Experiments:
[1] = system: glutamate-insulted rat cortical cells; conditions: previously patented neuroprotectant, comparison; cited from earlier work
[2] = system: NO content released from glutamate-insulted rat cortical cells; assay: Measurement of nitric oxide (nitrite in culture broth, Griess reagent); type: cell-based; conditions: for Nitrite / Nitrite post-treatment: post-treatment; for Nitrite: control 75.5, glutamate-treated 145.7; for Nitrite post-treatment / Nitrite pre-treatment: control 70.5, glutamate-treated 165.9
Description: The content of nitrite isolated into culture broth from first cultured cortical cells was assayed by using Griess reagent by Dawson's method(Dawson V L, Brahbhatt H P, Mong J A and Dawson T M (1994) Expression of inducible nitric oxide synthase causes delayed neurotoxicity in primary neuronal-glial cortical cultures. Neuropharmacology 33: 1425-1430).

[3] = system: glutamate-insulted rat cortical cells; assay: Neuroprotection against glutamate-induced neurotoxicity, cell viability by MTT assay in primary cultured cortical cells; type: cell-based; set-up: neuroprotective activity (in words): dose or concentration left out as unconfirmed
Description: Primary cultures of mixed cortical cells containing both neuron and glia were prepared from fetal rats as described previously (Kim Y C, Kim S R, Markelonis G J and Oh T H (1998) Ginsenosides Rb1 and Rg3 protect cultured rat cortical cells from glutamate-induced neurodegeneration. J. Neurosci. Res. 53: 426-432).
The cortical cells were plated onto collagen-coated dishes at a density of 1×10^6 cells/ml. The cultured cells were grown in DMEM supplemented with 10% heat-inactivated fetal calf serum, 1 mM sodium pyruvate, 100 IU/ml pecicillin and 100 μg/ml streptomycin at 37° C. in a humidified atmosphere of 95% air/5% CO2. cultures were allowed to mature for 2 weeks before being used for experiments.
Total extract of S. chinensis, fraction and isolated materials were dissolved in DMSO(within final culture concentration, 0.1%) and diluted with distilled water and by passing the solution through Milliporemembrane(0.22 μm, Millex-GV, USA) to make sterile state. The solution was cultured by differentiating the concentration and dosed to neuron cells.
To culture broth of the cortical cells during being cultured, MTT(5 mg/ml) was added by 10% of the culture broth. The broth was cultured for more 3 hours. The formed formazan was dissolved by DMSO and was assayed absorption at 540 nm((Mosmann T (1983) Rapid colorimetric assay for cellular growth and survival: Application to proliferation and cytotoxicity assays. J. Immuno. Methods 65: 55-61)
The neuroprotective activity of these two aristolactam alkaloids against glutamate-induced toxicity was initially evaluated by a timed exposure to alkaloids before or after excitotoxic challenge. Some cultures were pretreated with alkaloids for one hr before a brief exposure (30 min) to glutamate, washed and maintained in DMEM for 24 hr in the absence of alkaloids (pre-treatment) (Table 3). Also, cultures were first exposed to glutamate for 30 min, washed and maintained in DMEM for 24 hr in the presence of alkaloids (post-treatment) (Table 4).
Cortical cells directly isolated from rat fetal were cultured for 14 days. The samples to be tested were treated at different concentrations to cultured cells. After one hour, neurotoxicity was induced by treating 100 μM of glutamate. After 24 hours, the survival cell rate were measured by MTT assay to determine neuroprotective activity of the samples.
Control is the value for primary cultures of rat cortical cells. Control value for MTT was 1.03±0.08 optical density (OD). Glutamate-treated is the value for primary cultures of rat cortical cells exposed to glutamate for 30 min. Glutamate-treated value for MTT was 0.58±0.02 OD.
Viability is calculated as 100×(OD of sample treated−OD of Glutamate-treated)/(OD of control−OD of Glutamate-treated).

[4] = system: catalase; assay: Effect on activity of antioxidant enzyme catalase; type: cell-based, rat; conditions: data not shown
[5] = system: SOD; assay: Effect on activity of antioxidant enzyme SOD; type: cell-based, rat; conditions: data not shown
[6] = system: GSH-px; assay: Effect on activity of antioxidant enzyme GSH-px; type: cell-based, rat; conditions: data not shown
[7] = system: [Ca2+]i in glutamate-insulted rat cortical cells; assay: Measurement of Ca2+ concentration in cells (Fura-2 AM); type: cell-based; conditions: for [Ca2+]i: pre-treatment, control 75.5, glutamate-treated 425.4
[8] = system: peroxide content on glutamate-insulted rat cortical cells; assay: Cellular peroxide content in glutamate-injured cortical neurons; type: cell-based
[9] = both pre- and post-treatment paradigms

In the case of COc1ccc(/C=C/C(=O)O)cc1 [E-p-MCA, (E)-p-methoxycinnamic acid], the “protective activity by treatment paradigm (in words)” value [1] is listed as “significant protective activity only in pre-treatment paradigm”.
For N=C(NCCC[C@H](N)C(=O)O)N[N+](=O)[O-] [N^ω-nitro-L-arginine, reference compound], the Nitrite ([2]; 1.0 μM) was 103.9 ± 3.5 nM, the Nitrite ([2]; 10.0 μM) was 88.5 ± 4.1 nM and the Nitrite ([2]; 100.0 μM) was 109.7 ± 1.9 nM.
For COc1cc2c3c(cc4ccccc4c3c1OC)NC2=O [aristolactam BII, 10-amino-3,4-methoxy-3-hydroxy-phenanthrene-1-carboxylic acid lactam], the “Neuroprotection (% protection against glutamate-induced neurotoxicity)” value ([3]; post-treatment (right after 30 min glutamate insult), 0.1 μM) was 58.5 ± 5.8 %, the “Neuroprotection (% protection against glutamate-induced neurotoxicity)” value ([3]; post-treatment (right after 30 min glutamate insult), 1.0 μM) was 68.4 ± 3.5 % and the “Neuroprotection (% protection against glutamate-induced neurotoxicity)” value ([3]; post-treatment (right after 30 min glutamate insult), 10.0 μM) was 47.8 ± 2.9 %. For the same molecule, the “Neuroprotection (% protection against glutamate-induced neurotoxicity)” value ([3]; pre-treatment (1 hr prior to glutamate insult), 0.1 μM) was 0.0 ± 7.8%, the “Neuroprotection (% protection against glutamate-induced neurotoxicity)” value ([3]; pre-treatment (1 hr prior to glutamate insult), 1.0 μM) was 0.0 ± 3.2% and the “Neuroprotection (% protection against glutamate-induced neurotoxicity)” value ([3]; pre-treatment (1 hr prior to glutamate insult), 10.0 μM) was 32.2 ± 0.8 %. For the same molecule, the “protection from glutamate-induced neurotoxicity (in words)” value ([3]; pre-treatment paradigm) was “did not significantly protect”, the “neuroprotective activity (in words)” value ([3]; throughout treatment paradigm) was “significant neuroprotective activity” and the “Neuroprotection (% protection against glutamate-induced neurotoxicity)” value ([3]; throughout treatment, 0.1 μM) was “no effect”. For the same molecule, the “Neuroprotection (% protection against glutamate-induced neurotoxicity)” value ([3]; throughout treatment, 1.0 μM) was 60.8 ± 2.1 %, the “Neuroprotection (% protection against glutamate-induced neurotoxicity)” value ([3]; throughout treatment, 10.0 μM) was 52.2 ± 3.2 % and the Nitrite ([2]; 0.1 μM) was 87.0 ± 0.8 nM. The Nitrite ([2]; 1.0 μM) was 86.8 ± 2.2 nM, the Nitrite ([2]; 10.0 μM) was 103.2 ± 1.2 nM and the “NO content in cultures treated with glutamate plus compound (in words)” value ([2]; versus glutamate alone) was “increased only slightly”. For the same molecule, the “protective effect on activity of catalase (in words)” value [4] was “no significant protective effects”, the “protective effect on activity of SOD (in words)” value [5] was “no significant protective effects” and the “protective effect on activity of GSH-px (in words)” value [6] was “no significant protective effects”.
In the case of saurolactam-3-O-(E)-p-methoxycinnamate, the “Neuroprotection (% protection against glutamate-induced neurotoxicity)” value ([3]; Table 6, pre-treatment, 0.1 μM) is reported as 29.8 ± 8.2 %, the “Neuroprotection (% protection against glutamate-induced neurotoxicity)” value ([3]; Table 6, pre-treatment, 1.0 μM) is reported as 67.2 ± 9.6 % and the “Neuroprotection (% protection against glutamate-induced neurotoxicity)” value ([3]; Table 6, pre-treatment, 10.0 μM) is reported as 80.6 ± 9.5 %. For the same molecule, the “Neuroprotection (% protection against glutamate-induced neurotoxicity)” value ([3]; Table 7, post-treatment, 0.1 μM) was 62.1 ± 1.8 %, the “Neuroprotection (% protection against glutamate-induced neurotoxicity)” value ([3]; Table 7, post-treatment, 1.0 μM) was 70.3 ± 3.2 % and the “Neuroprotection (% protection against glutamate-induced neurotoxicity)” value ([3]; Table 7, post-treatment, 10.0 μM) was 48.2 ± 1.5 %. The “neuroprotective activity on glutamate-induced neurotoxicity (in words)” value [3, 9] was “significant neuroprotective activity”, the “block of NO synthesis (in words)” value [2, 9] was “significantly block” and the Nitrite post-treatment ([2]; 0.1 μM) was 143.6 ± 5.7 nM. The Nitrite post-treatment ([2]; 1.0 μM) was 97.5 ± 26.3 nM, the Nitrite post-treatment ([2]; 10.0 μM) was 118.1 ± 2.1 nM and the Nitrite pre-treatment ([2]; 0.1 μM) was 125.0 ± 6.8 nM. For the same molecule, the Nitrite pre-treatment ([2]; 1.0 μM) was 74.8 ± 6.5 nM, the Nitrite pre-treatment ([2]; 10.0 μM) was 71.4 ± 2.1 nM and the “block of increase of intracellular Ca2+ induced by excess glutamate (in words)” value [7] was “successfully block”. For the same molecule, the “[Ca2+]i” value ([7]; 0.1 μM) was 233.3 ± 14.9 nM, the “[Ca2+]i” value ([7]; 1.0 μM) was 145.8 ± 26.3 nM and the “[Ca2+]i” value ([7]; 10.0 μM) was 96.1 ± 4.1 nM. For the same molecule, the “cellular peroxide level (in words)” value [8] was “reduced”.
